Laboratory results taken from patent US10597696B2, “Detection of Niemann-Pick disease comprising detection of lysozyme and cathepsins” (UNIVERSITY OF NOTRE DAME DU LAC, priority 2013, dated 2020).
Entries after “also recorded” stand apart in the source; their conditions may differ.

Legend:
[1] = system: Npc1^nmf164 homozygous mutant mice; test: Plasma lysozyme activity in HPβCD-treated Npc1^nmf164 mice; type: in vivo, mouse; conditions: once a week i.p. from age 21-27 days, plasma at 50-55 days, vs vehicle/untreated
Npc1^nih Npc1^−/− mice = test: Plasma lysozyme activity in HPβCD-treated Npc1^nih mice; type: in vivo, mouse
Description: Lysozyme activity in plasma was measured using fluorescence based lysozyme assay kit (EnzCheck, Life Technologies, Carlsbad, Calif., USA) as describer earlier (19). Plasma corresponding to 25 μg protein from female and male Npc1^nih mice was used in a 100 μl reaction volume. The reaction was carried out at 37° C. for 24 h. Fluorescence was read using excitation/emission of 494/518 nm in a multiwell plate reader spectramax M2 (Molecular devices, CA, USA). The values obtained were normalized by dividing the numbers by the mean value of lysozyme obtained among untreated Npc1^+/− mice. Purified chicken egg white lysozyme was used as a positive control. Starting at P21 and once a week thereafter, Npc1^nih and Npc1^nmf164 mice were injected i.p with 20% 2-hydroxypropyl-beta-cyclodextrin (HPβCD, 4000 mg/Kg) prepared in 0.2% DMSO and 0.9% saline. Control mice received 0.2% DMSO in 0.9% saline. Blood was collected either via cheek bleed or terminal heart bleed from mice in EDTA tubes (BD Biosciences, San Jose, Calif., USA). Plasma was separated by centrifugation at 2500 rpm for 15 min and stored at −70° C. until used.

[2] = system: Npc1^nih Npc1^−/− mouse liver; test: qPCR of cathepsins, inflammation and fibrosis markers in liver after HPβCD; type: in vivo
Description: In mice, formalin fixed paraffin embedded tissue was sectioned (4-5 μm) and total RNA was isolated using RNeasy FFPE kit (Qiagen, Germantown, Md., USA) which included treatment with DNAse. Frozen human liver and cerebellum from 4 NPC patients and 4 age-, gender- and ethnicity-matched controls were obtained from the NICHD Brain and Tissue Bank for Developmental Disorders (University of Maryland, Baltimore, Md., USA), as approved by the Institutional Review Board (IRB), of the University of Notre Dame, Ind., USA (FWA 00002462). Total RNA was isolated using RNeasy kit (Qiagen, Germantown, Md., USA). Eluted RNA was further digested with RNase free DNaseI and re-purified using RNeasy column. The quality of RNA was checked using Bioanalyzer chip (Agilent Technologies, Santa Clara, Calif., USA) and quantity was determined using Nanodrop 2000 (Thermo Fisher Scientific, Waltham, Mass., USA). Quantitative PCR (qPCR) was performed using Power SYBR Green RNA-to-CT 1-Step Kit and an ABI Prism 7500 Fast real-time PCR system (Applied Biosystems, Grand Island, USA). Reaction was set in 20 μl using 100 nM primers and 5-100 ng total RNA as template. The thermal cycling parameters were as follows: step 1, 48° C. for 30 min; step 2, 95° C. for 10 min; step 3, 95° C. for 15 sec ° C.; step 4, 60° C. for 15 sec. Step 3-4 was repeated for 40 cycles followed by melt curve analysis. Specific amplification was validated by analysis of template titration, melt curves and agarose gel electrophoresis. In both mouse and human tissues, the mRNA levels were normalized to the housekeeping gene, Gapdh (Glyceraldehyde 3-phosphate dehydrogenase). Fold change was calculated by relative standard curve method after correcting PCR efficiency. In mice, the fold change in expression levels of different genes in Npc1^−/− was calculated relative to average levels of expression in Npc1^+/− mice. In human tissues, fold change in transcript expression in NPC liver and cerebellum was expressed relative to average expression in age-matched controls. Starting at P21 and once a week thereafter, Npc1^nih and Npc1^nmf164 mice were injected i.p with 20% 2-hydroxypropyl-beta-cyclodextrin (HPβCD, 4000 mg/Kg) prepared in 0.2% DMSO and 0.9% saline. Control mice received 0.2% DMSO in 0.9% saline. Blood was collected either via cheek bleed or terminal heart bleed from mice in EDTA tubes (BD Biosciences, San Jose, Calif., USA). Plasma was separated by centrifugation at 2500 rpm for 15 min and stored at −70° C. until used.

Npc1^nih mice [3] = test: Onset of symptoms and survival of HPβCD-treated Npc1^nih mice; type: in vivo, mouse; conditions: weekly 4000 mg/Kg from P21
Description: Starting at P21 and once a week thereafter, Npc1^nih and Npc1^nmf164 mice were injected i.p with 20% 2-hydroxypropyl-beta-cyclodextrin (HPβCD, 4000 mg/Kg) prepared in 0.2% DMSO and 0.9% saline. Control mice received 0.2% DMSO in 0.9% saline. Blood was collected either via cheek bleed or terminal heart bleed from mice in EDTA tubes (BD Biosciences, San Jose, Calif., USA). Plasma was separated by centrifugation at 2500 rpm for 15 min and stored at −70° C. until used.
To examine time points of advanced disease, we returned to the shorter, Npc1^nih model. This model typically manifests phenotypic symptoms (weight loss, gait, tremor etc.) from ˜50-55 days and survives up to ˜80-84 days (FIG. 18A). […] We therefore treated Npc1^−/− mice with HPβCD or vehicle control (0.2% DMSO in 0.9% saline) with once a week drug injections (4000 mg/Kg) starting at age P21. […] As reported earlier, the plasma lysozyme activity of vehicle treated Npc1^−/− mice was elevated on average 2-fold in early symptomatic (50-60 days) animals (FIG. 18B) and remained elevated at the late symptomatic stage (70 days) compared to age matched controls (FIG. 18C).

Npc1^nih mice [4] = conditions: cited from earlier work
[5] = Npc1^nih Npc1^−/−, weekly HPβCD, at 80+ days

CC(O)COC[C@H]1O[C@@H]2O[C@H]3[C@H](O)[C@@H](O)[C@@H](O[C@H]4[C@H](O)[C@@H](O)[C@@H](O[C@H]5[C@H](O)[C@@H](O)[C@@H](O[C@H]6[C@H](O)[C@@H](O)[C@@H](O[C@H]7[C@H](O)[C@@H](O)[C@@H](O[C@H]8[C@H](O)[C@@H](O)[C@@H](O[C@H]1[C@H](O)[C@H]2O)O[C@@H]8COCC(C)O)O[C@@H]7COCC(C)O)O[C@@H]6COCC(C)O)O[C@@H]5COCC(C)O)O[C@@H]4COCC(C)O)O[C@@H]3COCC(C)O (stereo partly drawn) [HPβCD, 2-hydroxypropyl-beta-cyclodextrin]
plasma lysozyme activity [1]: significantly reduced; also recorded: rendered comparable to untreated wild type animals | plasma lysozyme activity ([1]; listed as H∪CD): decrease | decrease of plasma lysozyme (Npc1^nih Npc1^−/− mice; NPC mice, composite quartile analysis (FIG. 20B)): 50% | plasma lysozyme activity (Npc1^nih Npc1^−/− mice; Npc1^nih Npc1^−/−, weekly 4000 mg/Kg from P21, at 50-60 days): reduced plasma lysozyme activity levels seen in wild type mice | plasma lysozyme compared to mock treated animals (Npc1^nih Npc1^−/− mice; [5]): reduction | plasma lysozyme increase compared to normal animals (Npc1^nih Npc1^−/− mice; [5]): 1.5 fold | expression of Cd68 in liver ([2]; Npc1^−/− mice): reduced to normal levels | expression of Col1a in liver ([2]; Npc1^−/− mice): anomalous reduction | expression of Itgax in liver ([2]; Npc1^−/− mice): reduced to normal levels | Lyz1 expression in liver ([2]; Npc1^−/− mice, late stages): abrogated Lyz1 over expression; also recorded: restored lysozyme transcript and protein to normal levels | expression of Ctss in liver ([2]; late stage Npc1^−/− mice): markedly reduced and equivalent to control mice | survival (Npc1^nih mice [3]; untreated up to ~80-84 days): 105 to 112 days | onset of symptoms (Npc1^nih mice [3]; untreated ~49-56 days): 70 to 80 days | Lgals3 and Ctsd transcripts (Npc1^nih mice [4]; Npc1^−/− mice, Cluzeau et al., 2012): reduced | disease and survival (Npc1^nih mice [4]; weekly injections to Npc1^nih, previous studies): ameliorates the disease and extend the survival; also recorded: reduce disease and extend the survival
